Test results as given in patent US9869681B2, “Process for treating an individual with an esthetic defect of skin by modulating SASPase FLG2 complex” (L'OREAL, priority 2010, dated 2018).
Substitutions are numbered along the chain they refer to.

T1: SASPase-FLG2 interaction (Homo sapiens, UniProt Q53RT3, D212A)
T1 construct: made in house; host or cells: E. coli BL21DE3
T1 sequence (Q53RT3 85-343 D212A): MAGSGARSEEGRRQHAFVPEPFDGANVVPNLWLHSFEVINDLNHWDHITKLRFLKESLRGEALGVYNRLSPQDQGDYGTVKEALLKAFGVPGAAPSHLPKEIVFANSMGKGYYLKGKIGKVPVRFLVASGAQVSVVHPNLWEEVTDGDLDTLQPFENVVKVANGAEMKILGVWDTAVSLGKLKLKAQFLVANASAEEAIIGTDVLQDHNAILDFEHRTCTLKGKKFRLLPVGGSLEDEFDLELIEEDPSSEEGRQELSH

T2: recombinant SASPase (28 kDa) (Homo sapiens, UniProt Q53RT3)
T2 construct: made in house
T2 sequence (Q53RT3 85-343): T1 sequence (Q53RT3 85-343 D212A) with A128D

B1: FLG2-Hs: recombinant filaggrin-2, amino acids 2-213 of Q5D862, fused N-terminally to thioredoxin-His-S.Tag; active form (protein, UniProt Q5D862 2-213, looked up, fragment)
chain: TDLLRSVVTVIDVFYKYTKQDGECGTLSKGELKELLEKELHPVLKNPDDPDTVDVIMHMLDRDHDRRLDFTEFLLMIFKLTMACNKVLSKEYCKASGSKKHRRGHRHQEEESETEEDEEDTPGHKSGYRHSSWSEGEEHGYSSGHSRGTVKCRHGSNSRRLGRQGNLSSSGNQEGSQKRYHRSSCGHSWSGGKDRHGSSSVELRERINKSHI
modifications: N-terminal thioredoxin-His-S.Tag fusion
B2: FLG2-AbD: recombinant filaggrin-2, amino acids 81-212 of Q5D862, fused N-terminally to thioredoxin-His-S.Tag; inactive form (protein, UniProt Q5D862 81-212, looked up, fragment)
chain: LTMACNKVLSKEYCKASGSKKHRRGHRHQEEESETEEDEEDTPGHKSGYRHSSWSEGEEHGYSSGHSRGTVKCRHGSNSRRLGRQGNLSSSGNQEGSQKRYHRSSCGHSWSGGKDRHGSSSVELRERINKSH
modifications: N-terminal thioredoxin-His-S.Tag fusion

Key:
[1] = tested on: reconstructed human epidermis Episkin J6; test: Stratum corneum thickness by histological observation on slices of Episkin reconstructed epidermis; type: cell-based; conditions: tested at 10 μM, 1 μM and 0.5 μM; observed at and above the lowest concentration tested
Method: (§1) A model of reconstructed human epidermis Episkin J6 (reference 09-EPIS-015) was cultured by immersion in Episkin differentiation medium, 3.5 ml under insert in an oven at 37° C., 5% CO2, the medium being changed every 2 days.
(§2) The compound “M7” was tested at concentrations of 10 μM, 1 μM and 0.5 μM by incubation of the epidermal model with a differentiation culture medium supplied by EpiSkin®, comprising the compound at the test concentration or a buffer solution as control (DMSO at 0.1% final).
(§3) The effect of the compound “M7” on the differentiation and/or proliferation of epidermal cells is evaluated by measuring the thickness of the stratum corneum, and measurement of the expression and/or activation of transglutaminase I (TGI), caspase 14, SASPase, corneodesmosin, desmoglein 1 or protein Ki67.
The thickness of the stratum corneum was estimated by histological observation on slices.

[2] = tested on: reconstructed human epidermis Episkin J6; test: Ki67 immunofluorescence on frozen slices of Episkin reconstructed epidermis; type: cell-based; conditions: Episkin epidermis cultured in the presence of M7 (10 μM, 1 μM, 0.5 μM)
Method: as §1, §2, §3
The activation, expression and maturation of Ki67 were determined by immunofluorescence on frozen slices.
The immunofluorescence labeling on frozen slices is performed using a standard protocol, with a PBS buffer; 0.2% BSA for the steps of washing and incubation of the primary and secondary antibodies, and with a PBS buffer; 5% BSA for the step for blocking the nonspecific sites.
For the detection of Ki67, primary antibody: Novocastra mm1 at 1/20 produced in mice; secondary antibody: AlexaFLuor A488-coupled anti-mouse antibody at 1/1000 (Molecular Probes A11017). […]

[3] = tested on: reconstructed human epidermis Episkin J6; test: Western blotting of differentiation markers in Episkin reconstructed epidermis; type: cell-based; conditions: Episkin epidermis cultured in the presence of M7 (10 μM, 1 μM, 0.5 μM)
Method: as §1, §2, §3
The activation, expression and maturation of TGI, filaggrin, caspase 14, SASPase, corneodesmosin and desmoglein 1 were determined by western blotting.
For the western blotting, the soluble proteins, TGI, caspase 14, corneodesmosin and SASPase were extracted from two Episkin® nacelles with a manual potter in 1 ml of “native +” buffer (TBS, 1M NaCl, 0.1% Tween 20). The extract is centrifuged at 14 000 rpm, at 4° C. for 10 minutes. The supernatant obtained is filtered through a 0.45 μm Millipore filter (millex) and the proteins are then quantified by the BCA method (Pierce). The protein concentrations are equilibrated to 625 μg/ml final.
The extracts are deposited on a 10-20% Criterion gel (ref.: 345-0044 Bio-Rad) according to the supplier's protocol, and are then transferred onto a PVDF membrane via the semi-dry method.
The western blotting immunochemical detection is performed according to a standard protocol carried out with primary antibodies specific for the target and secondary antibodies coupled to HRP. Revelation is performed with the kits ECL; ECL plus; ECL advanced (Amersham) according to the necessary sensitivity and according to the supplier's protocol. The photon imaging apparatus used is the Fluor S Multilmager (Bio-Rad).
For TGI, primary antibody: Covalab pab 0061 at 1/100 produced in rabbits; secondary antibody: HRP-coupled anti-rabbit antibody at 1/4000: Bio-rad 170-6515
For caspase 14, primary antibody: Santa Cruz sc-5628 at 1/500 produced in rabbits; secondary antibody: HRP-coupled anti-rabbit antibody at 1/400: Bio-rad 170-6515
For corneodesmosin, primary antibody: Abnova 1041-M01 at 1/5000 produced in mice; secondary antibody: HRP-coupled anti-mouse antibody at 1/4000: Bio-rad 170-6516
For SASPase, primary antibody: Covalab 7H9a105 at 1/2000 produced in mice; secondary antibody: HRP-coupled anti-mouse antibody at 1/4000: Bio-rad 170-6516
For the western blotting of filaggrin and desmoglein 1, these proteins are extracted from the pellet obtained during the extraction of the “soluble” proteins. The pellets are ground with an electric potter in 200 μl of whole Laemmli buffer ([…] Tris; 2% SDS; 200 mM DTT; 10% glycerol) and then heated at 90° C. for 10 minutes and finally centrifuged for 10 minutes at 14 000 rpm at room temperature.
The supernatants obtained are assayed for proteins via the Bradford method (cytoskeleton). The total protein concentrations are equilibrated to 1 mg/ml final. A western blotting protocol identical to the previous one is applied.
For desmoglein 1, primary antibody: Progen 61002 at 1/100 produced in mice; secondary antibody: HRP-coupled anti-mouse antibody at 1/4000: Bio-rad 170-6516

[4] = biological target: T1, SASPase-FLG2 interaction; test: HTRF (FRET) screening of agents that modulate the SASPase-FLG2 interaction; type: binding; conditions: SASPase85-343D212A-GST 50 nM, FLG22-213-S-His-THX 200 nM, PBS pH 7.4; read-out: IC50, inhibition of the SASPase-FLG2 interaction
Method: The process developed is based on the FLG2-SASPase interaction and uses the homogeneous time-resolved fluorescence (or HTRF) technique.
A recombinant SASPase protein (comprising the amino acid sequence 85-343 of Q53RT3) mutated at its active site (D212A of Q53RT3) and fused with the GST (glutathione S-transferase from Schistosoma japonicum) affinity marker, at its C-terminal end, was prepared in the vector pGEX-4-T3 (GenBank U13855) (SASPase85-343D212A-GST). The D212A mutation was introduced to inactivate the SASPase and to promote a stable interaction with FLG2. […]
Antibodies recognizing, respectively, the affinity markers GST or His-S.Tag, and bearing, respectively, an EuK fluorescence donor group (europium cryptate λex 337 nm/λem 620 nm) or an XL1665 fluorescence receiver group (λex 570-630 nm/λem 665 nm) are used to monitor the peptide-SASPase interaction.
The SASPase-FLG2 interaction was observed by fluorescence energy transfer (FRET) between the fluorescent markers Euk and XL1665. The Euk fluorescence donor was excited at λex 337 nm and the fluorescence emission of the XL1665 fluorescence acceptor was measured at λem 665 nm.
The Euk fluorescence emission at λem 620 nm, taking place independently of the interaction between SASPase and FLG2, was used to normalize the signal. Thus, for each point, a ratio λem 665/λem 620 is determined. […]

[5] = biological target: T2, recombinant SASPase (28 kDa); test: Enzymatic activation of SASPase by FLG2 (hydrolysis of fluorescent substrate Dabcyl-QIDRIMEK-Edans); type: biochemical; conditions: for enzymatic activity of the SASPase: increasing concentration of FLG2 form (0.01 to 10 times SASPase 0.025 mg/ml), acetate/acetic acid buffer pH 5.5, 37° C.
Method: The enzymatic reaction is performed in an acetate/acetic acid buffer. The FIGURE illustrates the mean±sem of an experiment performed in duplicate.
A 28-kDa recombinant SASPase corresponding to the amino acid sequence 85 to 343 of the sequence Q53RT3 (Uniprot/Swissprot ref.) was prepared as described by Bernard et al. (J. Invest. Dermatol., 2005, 125: 278-287) (SASPase85-343).
The SASPase was dissolved in a PBS buffer and used at a final concentration of 0.025 mg/ml in the presence of a final concentration of a colorimetric substrate Dabcyl-QIDRIMEK-Edans of 0.01 mM (Production Jerini Peptide Ref. D17: JPT Peptide Technologies GmbH).
FLG2-Hs and FLG2-AbD are used at concentrations corresponding to 0.01, 0.02, 0.04, 0.08, 0.16, 0.31, 0.63, 1.25, 2.5, 5 or 10 times the final concentration of SASPase, i.e. 0.025 mg/ml.
SASPase and FLG2-Hs, or FLG2-AbD, are incubated at 37° C. in a 0.1 M acetate/acetic acid buffer at pH 5.5 containing 150 mM of NaCl, in the presence of Dabcyl-QIDRIMEK-Edans.
The hydrolysis of the colorimetric substrate by the activated SASPase leads to the separation of the Edans fluorochrome and of its Dabcyl deactivator (or quencher), and to an increase in the fluorescence of Edans.
Measurement of the fluorescent signal is performed at λex 340 nm/[…]. The fluorescence is read every 10 minutes for 1 hour 30 minutes at 37° C., with a Spectramax M5e (Molecular Devices).

| Molecule | thickness of the stratum corneum [1] | activation and expression of the protein Ki67 [2] | expression and activation of SASPase [3] | expression and activation of TGI (transglutaminase I) [3] | expression and activation of caspase 14 [3] | expression and activation of corneodesmosin [3] | expression and activation of desmoglein [3] | IC50 [4] [nM] | FLG2 concentration at and above which activation of SASPase proteolytic activity is obtained ([5]; SASPase 0.025 mg/ml) | enzymatic activity of the SASPase [5] |
| --- | --- | --- | --- | --- | --- | --- | --- | --- | --- | --- |
| Cc1ccc(C(=O)Oc2cccc(C3C4=C(Nc5c3c(=O)n(C)c(=O)n5C)c3ccccc3C4=O)c2)cc1 (centres unmarked) [M7] | thickening | decrease | increase | increase | increase | increase | increase | ~2000 | – | – |
| B1 | – | – | – | – | – | – | – | – | equivalent to that of the SASPase | significantly increased |
| B2 | – | – | – | – | – | – | – | – | – | virtually unchanged |
